According to ChEMBL document CHEMBL4627277, “Catenulisporidins A and B, 16-membered macrolides of the hygrolidin family produced by the chemically underexplored actinobacterium Catenulispora species” (Bioorg Med Chem Lett, 2020):
Calls of active or inactive are those of the source. The rule behind the calls is not given here.

Assays:
Format in all cases: functional, cell-based
[1] = test system: HeLa; experiment: Modulation of autophagy in human HeLa cells assessed as accumulation of p62 measured after 24 hrs by western blot analysis
[2] = test system: HeLa; experiment: Modulation of autophagy in human HeLa cells expressing mRFP-EGFP-LC3B assessed as induction of EGFP-LC3B puncta formation at 3 uM measured after 24 hrs by fluorescence microscopic analysis
[3] = test system: HeLa; experiment: Modulation of autophagy in human HeLa cells assessed as autophagosome maturation by measuring conversion of LC3B-I to LC3B-II measured after 24 hrs by western blot analysis
[4] = test system: HeLa; experiment: Inhibition of autophagic flux in human HeLa cells expressing mRFP-EGFP-LC3B assessed as blockage of autophagosome-lysosome fusion by measuring accumulation of yellow puncta at 3 uM measured after 24 hrs by fluorescence microscopic analysis
[5] = test system: HeLa; experiment: Modulation of autophagy in human HeLa cells expressing mRFP-EGFP-LC3B assessed as induction of EGFP-LC3B puncta formation at 0.3 uM measured after 24 hrs by fluorescence microscopic analysis
[6] = test system: HeLa; experiment: Antiproliferative activity against human HeLa cells assessed as reduction in cell growth
[7] = test system: HeLa; experiment: Induction of autophagy in human HeLa cells expressing mRFP-EGFP-LC3B assessed as accumulation of red and green fluorescence signals at 200 nM measured after 24 hrs by fluorescence microscopic analysis

Row | Structure (SMILES) | Activity [1] | Activity [2] | Activity [3] | inhibition [4] | Activity [5] | IC50 [6] [µM] | Activity [7]
1 | CC[C@H]1O[C@@](O)([C@@H](C)[C@H](O)[C@H](C)[C@H]2OC(=O)/C(C)=C/C(C)=C/[C@@H](C)[C@@H](O)[C@@H](C)C/C(C)=C/C=C/[C@@H]2OC)C[C@@H](OC(=O)/C=C/C(=O)O)[C@@H]1C | Dose-dependent effect | Active | Dose-dependent effect | Active | Active | 11.8 | –
2 | CC[C@H]1O[C@@](O)([C@@H](C)[C@H](O)[C@H](C)[C@H]2OC(=O)/C(C)=C/C(C)=C/[C@@H](C)[C@H]3O[C@](C)(C[C@@H]3C)[C@@H](O)/C=C/[C@@H]2OC)C[C@@H](OC(=O)/C=C/C(=O)O)[C@@H]1C | Dose-dependent effect | Active | Dose-dependent effect | Active | – | > 30 | –
3 | CO/C1=C\C(C)=C\[C@@H](C)[C@@H](O)[C@@H](C)C/C(C)=C/C=C/[C@H](OC)[C@@H]([C@@H](C)[C@@H](O)[C@H](C)[C@@]2(O)C[C@@H](O)[C@H](C)[C@@H](C(C)C)O2)OC1=O [BAFILOMYCIN A1] | Dose-dependent effect | Active | – | Active | Active | 13 | –
4 | CCC(=O)N1CCN(c2ccc(-n3c(=O)ccc4cnc5ccc(-c6cnc7ccccc7c6)cc5c43)cc2C(F)(F)F)CC1 | – | – | – | – | – | – | Active
5 | CC[C@H]1O[C@@](O)([C@@H](C)[C@H](O)[C@H](C)[C@H]2OC(=O)/C(C)=C/C(C)=C/[C@@H](C)[C@@H](O)[C@@H](C)C[C@@](C)(O)[C@@H](O)/C=C/[C@@H]2OC)C[C@@H](OC(=O)/C=C/C(=O)O)[C@@H]1C | Dose-dependent effect | Active | Dose-dependent effect | Active | – | > 30 | –
